Laboratory results: ChEMBL document CHEMBL1151928, “Identification of Hsp70 modulators through modeling of the substrate binding domain” (Bioorg Med Chem Lett, 2009)
Active and inactive are the calls of the source. The rule behind the calls is not given here.

What was measured:
Hsp70 Ssa1p [1] = assay: Activation of yeast Hsp70 Ssa1p ATP hydrolysis activity at 300 uM; conditions: Saccharomyces cerevisiae
Hsp70 Ssa1p [2] = assay: Activation of yeast Hsp70 Ssa1p ATP hydrolysis activity at 300 uM in presence of ALLLSAPRR peptide; conditions: Saccharomyces cerevisiae

Activity (Hsp70 Ssa1p [1]): Active
Activity (Hsp70 Ssa1p [2]): Active
SMILES: CCOCCCN(C(C)=O)[C@@H](CC(C)C)C(=O)N[C@@H](CC(C)C)C(=O)NCCN1CCOCC1
